# Experimental data: paper PMC4290489, “Identification of multiple salicylic acid-binding proteins using two high throughput screens” (Frontiers in Plant Science, 2015)
# Molecular target: T1, LOX2 (Arabidopsis thaliana, UniProt P38418)
# T1 construct: N-terminal His6 (pET28a), from E. coli
# T1 sequence (P38418 57-896): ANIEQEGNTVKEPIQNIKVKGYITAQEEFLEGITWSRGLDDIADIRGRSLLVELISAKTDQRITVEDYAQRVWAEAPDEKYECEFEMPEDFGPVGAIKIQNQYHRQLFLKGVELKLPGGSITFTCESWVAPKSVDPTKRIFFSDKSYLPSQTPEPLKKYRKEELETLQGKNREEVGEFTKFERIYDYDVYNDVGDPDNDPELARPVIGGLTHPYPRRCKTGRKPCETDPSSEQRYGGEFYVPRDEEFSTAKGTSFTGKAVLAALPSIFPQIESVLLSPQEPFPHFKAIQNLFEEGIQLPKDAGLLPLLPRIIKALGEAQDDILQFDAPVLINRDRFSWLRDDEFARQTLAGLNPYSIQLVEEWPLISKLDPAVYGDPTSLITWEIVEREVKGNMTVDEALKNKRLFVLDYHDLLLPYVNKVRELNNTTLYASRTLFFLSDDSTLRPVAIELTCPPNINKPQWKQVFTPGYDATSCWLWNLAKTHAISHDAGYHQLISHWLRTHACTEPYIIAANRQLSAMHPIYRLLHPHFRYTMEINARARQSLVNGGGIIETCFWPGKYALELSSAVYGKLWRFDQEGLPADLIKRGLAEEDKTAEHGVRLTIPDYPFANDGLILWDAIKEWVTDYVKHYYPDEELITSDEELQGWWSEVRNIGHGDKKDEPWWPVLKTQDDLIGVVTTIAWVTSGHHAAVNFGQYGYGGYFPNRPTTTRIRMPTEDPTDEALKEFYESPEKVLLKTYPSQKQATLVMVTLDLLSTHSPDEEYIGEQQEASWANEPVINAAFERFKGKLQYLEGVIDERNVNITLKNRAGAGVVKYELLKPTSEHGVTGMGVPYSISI
# Test: UV photo-crosslinking, anti-SA immunoblot
# Format: binding
# Details: 50 uM 4AzSA, PBS, on ice, 254 nm UV; covalent; competed by SA
smiles,measurement,value
[N-]=[N+]=Nc1ccc(C(=O)O)c(O)c1 [4AzSA],"UV photo-crosslinking, anti-SA immunoblot",These five proteins also bound and crosslinked to 4AzSA
